From publication PMC9080226 (RSC Advances, 2018)

Assays:
[1] = biological target: T1, COMT in DLS9 (Canis lupus familiaris, UniProt Q60F99); assay: Kinetic analysis of 3-BTD methylation in dog liver S9; assay type: in vitro ADME, beagle dogs; conditions: formation of 3-BTMD in DLS9; Vmax/Km
T1 sequence (Q60F99 1-221): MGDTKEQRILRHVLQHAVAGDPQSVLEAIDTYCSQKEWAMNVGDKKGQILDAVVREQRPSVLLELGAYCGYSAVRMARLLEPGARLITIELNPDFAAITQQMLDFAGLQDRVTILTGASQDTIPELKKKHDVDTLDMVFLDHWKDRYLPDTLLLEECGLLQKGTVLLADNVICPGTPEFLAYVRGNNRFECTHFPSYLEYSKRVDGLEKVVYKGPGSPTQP

[2] = biological target: T2, COMT in HLS9 (Homo sapiens, UniProt P21964); assay: Kinetic analysis of 3-BTD methylation in human liver S9; assay type: in vitro ADME, humans; conditions: formation of 3-BTMD in HLS9; Vmax/Km
T2 sequence (P21964 51-271 limits assumed): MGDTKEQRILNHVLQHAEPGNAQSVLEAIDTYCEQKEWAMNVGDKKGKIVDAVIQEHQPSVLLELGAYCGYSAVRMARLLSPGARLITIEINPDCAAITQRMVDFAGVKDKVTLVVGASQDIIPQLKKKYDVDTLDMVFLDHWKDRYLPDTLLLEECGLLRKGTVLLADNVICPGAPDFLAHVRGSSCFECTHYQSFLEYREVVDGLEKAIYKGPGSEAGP

[3] = biological target: T3, COMT in MLS9 (Mus musculus, UniProt O88587); assay: Kinetic analysis of 3-BTD methylation in mouse liver S9; assay type: in vitro ADME, ICR/CD-1 mice; conditions: formation of 3-BTMD in MLS9; Vmax/Km
T3 sequence (O88587 44-265 limits assumed): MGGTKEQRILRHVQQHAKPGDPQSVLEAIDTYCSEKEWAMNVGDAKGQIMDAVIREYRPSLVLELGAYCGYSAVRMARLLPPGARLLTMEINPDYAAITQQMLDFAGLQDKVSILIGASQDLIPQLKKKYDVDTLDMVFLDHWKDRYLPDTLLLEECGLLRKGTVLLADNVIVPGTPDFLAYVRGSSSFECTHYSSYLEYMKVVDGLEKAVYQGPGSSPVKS

[4] = biological target: T4, COMT in RaLS9 (Oryctolagus cuniculus, UniProt A0A5F9DQ59); assay type: in vitro ADME, New Zealand rabbits; conditions: formation of 3-BTMD in RaLS9; Vmax/Km
T4 sequence (A0A5F9DQ59 1-268): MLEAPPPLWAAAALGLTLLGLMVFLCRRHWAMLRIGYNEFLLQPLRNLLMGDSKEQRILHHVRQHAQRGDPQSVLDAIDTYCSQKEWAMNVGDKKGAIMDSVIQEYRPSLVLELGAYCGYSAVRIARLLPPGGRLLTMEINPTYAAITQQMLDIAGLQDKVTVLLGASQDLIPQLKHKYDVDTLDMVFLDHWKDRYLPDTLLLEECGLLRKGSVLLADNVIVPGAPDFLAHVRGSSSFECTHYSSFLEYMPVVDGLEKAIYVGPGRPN

[5] = biological target: T5, COMT in RLS9 (Rattus norvegicus, UniProt P22734); assay: Kinetic analysis of 3-BTD methylation in rat liver S9; assay type: in vitro ADME, Sprague-Dawley rats; conditions: formation of 3-BTMD in RLS9; Vmax/Km
T5 sequence (P22734 44-264 limits assumed): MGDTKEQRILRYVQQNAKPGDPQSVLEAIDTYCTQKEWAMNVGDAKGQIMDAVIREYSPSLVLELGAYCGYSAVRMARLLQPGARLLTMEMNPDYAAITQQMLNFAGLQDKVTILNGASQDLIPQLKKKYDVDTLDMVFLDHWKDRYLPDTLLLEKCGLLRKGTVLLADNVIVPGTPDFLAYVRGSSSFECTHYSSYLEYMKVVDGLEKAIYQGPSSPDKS

[6] = biological target: T6, COMT in GpLS9 (Cavia porcellus, UniProt A0A286XRD6); assay: Kinetic analysis of 3-BTD methylation in guinea pig liver S9; assay type: in vitro ADME, Dunkin-Hartley guinea pigs; conditions: formation of 3-BTMD in GpLS9; Vmax/Km
T6 sequence (A0A286XRD6 1-270): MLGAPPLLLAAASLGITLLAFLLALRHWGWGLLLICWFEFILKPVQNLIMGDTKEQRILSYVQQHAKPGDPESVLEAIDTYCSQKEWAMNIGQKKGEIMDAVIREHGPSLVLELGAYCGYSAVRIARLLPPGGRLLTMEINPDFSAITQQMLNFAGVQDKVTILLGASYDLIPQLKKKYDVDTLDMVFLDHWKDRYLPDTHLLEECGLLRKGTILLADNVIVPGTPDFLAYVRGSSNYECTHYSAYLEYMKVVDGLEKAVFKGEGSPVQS

[7] = biological target: T3, COMT in MLS9; assay: biochemical
[8] = system: COMT in RaLS9
[9] = biological target: T4, COMT in RaLS9; assay: biochemical
[10] = biological target: T6, COMT in GpLS9; assay: Chemical inhibition assay of 3-BTD methylation in guinea pig liver S9; assay type: biochemical, Dunkin-Hartley guinea pigs
[11] = system: mammalian COMT in liver S9; conditions: tolcapone 1000 nM, liver S9 from all the test species
[12] = biological target: T1, COMT in DLS9; assay: Chemical inhibition assay of 3-BTD methylation in dog liver S9; assay type: biochemical, beagle dogs
[13] = biological target: T7, COMT in CyLS9 (Macaca fascicularis, UniProt A0A7N9CL08); assay: Chemical inhibition assay of 3-BTD methylation in cynomolgus monkey liver S9
T7 sequence (A0A7N9CL08 1-274): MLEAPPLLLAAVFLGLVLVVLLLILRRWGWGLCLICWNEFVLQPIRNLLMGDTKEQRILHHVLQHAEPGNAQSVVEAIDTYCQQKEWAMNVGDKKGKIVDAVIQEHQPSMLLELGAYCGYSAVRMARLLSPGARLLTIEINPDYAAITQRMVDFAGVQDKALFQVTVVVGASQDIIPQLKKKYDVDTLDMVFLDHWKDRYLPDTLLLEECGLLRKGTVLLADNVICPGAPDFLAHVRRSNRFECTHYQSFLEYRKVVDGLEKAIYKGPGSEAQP

SMILES: O=c1oc2c(O)c(O)ccc2cc1-c1nc2ccccc2s1 [3-BTD, 3-(benzo[d]thiazol-2-yl)-7,8-dihydroxy-2H-chromen-2-one]
- Clint [1]: 627 µL/min/mg
- Clint [2]: 112 µL/min/mg
- Clint [3]: 523 µL/min/mg
- Clint [4]: 235 µL/min/mg
- Clint [5]: 763 µL/min/mg
- Clint [6]: 191 µL/min/mg

SMILES: Cc1ccc(C(=O)c2cc(O)c(O)c([N+](=O)[O-])c2)cc1 [tolcapone]
- IC50 [7]: 29 ± 3.9 nM
- inhibitory potency (IC50) in animal liver S9 versus HLS9 [8]: 6.9 fold
- IC50 [9]: 117 ± 10.3 nM
- IC50 [10]: 108 ± 7.1 nM
- inhibition of mammalian COMT-mediated 3-BTD methylation [11]: strongly inhibit
- IC50 [12]: 20.8 ± 2.7 nM
- IC50 ([13]; CyLS9 0.2 mg ml^−1, 3-BTD (1 μM) 8-O-methylation as probe reaction, mean ± S.E.): 18.7 ± 3 nM
- inhibitory potency (IC50) in animal liver S9 versus HLS9 ([13]; CyLS9 versus HLS9): 1.1 fold
